Measurements taken from US20250382269A1 (CFD Research Corporation, priority 2019, published 2025).

Experiments:
[1] = test system: B. subtilis / cytotoxicity EC50; assay: Selectivity index (SI) using B. subtilis MICs
Method: (§1) Additionally, the antimicrobial compounds were analyzed for cytotoxicity. […] We utilized the standard MTT assay (Promega CellTiter 96) and GraphPad Prism 7 software to determine EC50 values for each analogue. Briefly, 20,000 HepG2 cells in 200 μl of the ATCC recommended media were seeded in each well of a 96-well plate with a moisture barrier created in the outermost wells. The cells were allowed to attach overnight at 37° C., and then observed under phase contrast microscopy for proper morphological characteristics. If cells appeared healthy and attached, test compounds were added in 7 concentrations from […] (n=3) from freshly prepared DMSO stock plates. […] Once incubations were complete, the spectrophotometric absorbance of the samples was measured at a wavelength of 595 nm. […] For the HepaRG assay, NoSpin HepaRG™ cells (Lonza, cat #NSHPRG) were thawed and plated with 20,000 cells per well. They were allowed to attach for 4 h (optimal DME profile per Lonza's testing) before dosing following the identical protocol as above.

Candida glabrata = assay: MIC/MFC against Candida glabrata strains; type: cell-based; details: Nakaseomyces glabratus; #584
HepaRG cells = assay: Cytotoxicity MTT assay in HepaRG cells; type: cell-based, human; details: 48 h
Method: as §1

[2] = MIC with and without 2-ketobutyrate (synergy); type: cell-based
[3] = test system: branched chain amino acid synthesis pathway (ILVB); assay: RNA sequencing / transcriptomic and metabolic mechanism of action studies
[4] = test system: S. aureus cell wall synthesis; assay: Macromolecular synthesis assay (glucosamine incorporation into cell wall); type: cell-based; details: dose-response, FIG. 2A-2B

Row | Compound | SI (selectivity index) [1] | also measured
1 | Fc1ccc2[nH]cc(Sc3ccc(Br)cc3)c2c1 [Compound 174E, 3-((4-bromophenyl)thio)-5-fluoro-1H-indole] | 14.2 | –
2 | COc1ccc2[nH]cc(Sc3ccc(Br)cc3)c2c1 [Compound 172E, 3-((4-bromophenyl)thio)-5-methoxy-1H-indole] | 14.9 | –
3 | Clc1c(Cl)c(Cl)c(Sc2c[nH]c3ccc(Br)cc23)c(Cl)c1Cl [Compound 174AD, 5-bromo-3-((perchlorophenyl)thio)-1H-indole] | – | MIC (Candida glabrata): > 50 µg/mL
4 | Clc1ccc(Sc2c[nH]c3ccc(Br)cc23)c(Cl)c1 [Compound 174V, 5-bromo-3-((2,4-dichlorophenyl)thio)-1H-indole] | 19.8 | –
5 | Brc1ccc(Sc2c[nH]c3ccccc23)cc1 [Compound 156K, 3-((4-bromophenyl)thio)-1H-indole] | – | Cytotoxicity HepaRG EC50 (HepaRG cells): 32 µg/mL
6 | Nc1ccccc1Sc1c[nH]c2ccc(Br)cc12 [Compound 174M, 2-((5-bromo-1H-indol-3-yl)thio)aniline] | – | MIC with 200 μg/mL 2-ketobutyrate ([2]; with 200 μg/mL 2-ketobutyrate): 0.781; MIC with 800 μg/mL 2-ketobutyrate ([2]; with 800 μg/mL 2-ketobutyrate): less than 0.39; Cytotoxicity HepaRG EC50 (HepaRG cells): 85 µg/mL; mechanism of action from transcriptomic and metabolic studies [3]: branched chain amino acid biosynthesis inhibition
7 | Oc1ccc(Sc2c[nH]c3ccccc23)cc1 [Compound 156I, 4-((1H-indol-3-yl)thio)phenol] | – | Cytotoxicity HepaRG EC50 (HepaRG cells): >20 µg/mL
8 | CCc1ccccc1Sc1c[nH]c2ccc(C(F)(F)F)cc12 [Compound 177G, 3-((2-ethylphenyl)thio)-5-(trifluoromethyl)-1H-indole] | 18.9 | –
9 | FC(F)(F)c1ccc2[nH]cc(Sc3ccccc3C(F)(F)F)c2c1 [Compound 177F, 5-(trifluoromethyl)-3-((2-(trifluoromethyl)phenyl)thio)-1H-indole] | 19.1 | –
10 | Fc1ccc(Sc2c[nH]c3ccc(Br)cc23)cc1 [Compound 174P, 5-bromo-3-((4-fluorophenyl)thio)-1H-indole] | 24.6 | –
11 | Clc1ccc2[nH]cc(Sc3ccc(Br)cc3)c2c1 [Compound 174C, 3-((4-bromophenyl)thio)-5-chloro-1H-indole] | 16.3 | –
12 | Oc1ccc(Sc2c[nH]c3ccc(C(F)(F)F)cc23)cc1 [Compound 177B, 4-((5-(trifluoromethyl)-1H-indol-3-yl)thio)phenol] | 17.8 | –
13 | CN[C@H](CC(C)C)C(=O)N[C@H]1C(=O)N[C@@H](CC(N)=O)C(=O)N[C@H]2C(=O)N[C@H]3C(=O)N[C@H](C(=O)N[C@H](C(=O)O)c4cc(O)cc(O)c4-c4cc3ccc4O)[C@H](O)c3ccc(c(Cl)c3)Oc3cc2cc(c3O[C@@H]2O[C@H](CO)[C@@H](O)[C@H](O)[C@H]2O[C@H]2C[C@](C)(N)[C@H](O)[C@H](C)O2)Oc2ccc(cc2Cl)[C@H]1O [vancomycin, reference compound] | – | cell wall synthesis inhibition (glucosamine incorporation) [4]: increasingly inhibits glucosamine from incorporating into a cell wall
14 | Oc1ccccc1Sc1c[nH]c2ccc(C(F)(F)F)cc12 [Compound 177A, 2-((5-(trifluoromethyl)-1H-indol-3-yl)thio)phenol] | 61.8 | –
15 | Brc1ccc2[nH]cc(Sc3ccccc3Br)c2c1 [Compound 174I, 5-bromo-3-((2-bromophenyl)thio)-1H-indole] | – | cell wall synthesis inhibition (glucosamine incorporation) [4]: substantial cell wall synthesis inhibition; mechanism of action from transcriptomic and metabolic studies [3]: branched chain amino acid biosynthesis inhibition
16 | Nc1ccccc1Sc1c[nH]c2ccc(C(F)(F)F)cc12 [Compound 177C, 2-((5-(trifluoromethyl)-1H-indol-3-yl)thio)aniline] | 123.6 | –
17 | Clc1ccc(Sc2c[nH]c3ccc(Br)cc23)cc1 [Compound 174J, 5-bromo-3-((4-chlorophenyl)thio)-1H-indole] | 16.2 | –
18 | Fc1ccc2[nH]cc(Sc3ccccc3Br)c2c1 [Compound 177E, 3-((2-bromophenyl)thio)-5-fluoro-1H-indole] | 20.3 | –
